Values of other authors as cited in patent US10105355B2 (BASF SE, priority 2014, dated 2018).
Where two headings read alike, the source gives them in different places.

estimated elimination half-life (t½) (after a single dose treatment): 288 h
estimated elimination half-life (t½) (after continuous once-daily dosing): 96 h
exposure linearity (single doses higher than 270 mg): not linear
SMILES: CS(=O)(=O)c1ccc(C(=O)Nc2ccc(Cl)c(-c3ccccn3)c2)c(Cl)c1 [Vismodegib, 2-Chloro-N-(4-chloro-3-pyridin-2-ylphenyl)-4-methylsulfonylbenzamide]
